Earlier results in patent US20260345588A1, “COMBINED AGENTS WITH SYNERGISTIC EFFECTS AGAINST GLIOMAS” (Eberhard Karls Universitaet Tuebingen Medizinische Fakultaet, priority 2023, published 2026).
Each block holds one compound with its values, some of them ahead of it.

Assays:
EHMT1 = EHMT1 peptide
EHMT2 = EHMT2 peptide
Fit3 = details: in words
Pim2 = details: Pim1 versus Pim2
haspin = details: in words
Pim3 = details: Pim1 versus Pim3
Pim1 = details: ATP competitive inhibitor; cell-free assay
[1] = use of tideglusib
Alzheimer's disease = details: phase-IIa clinical trial; treatment discontinued

IC50 (EHMT1): < 100 nM | IC50 (EHMT2): < 100 nM | IC50 (cellular EHMT2): < 100 nM
Compound: CNCc1cnn(-c2cc(Nc3nc(C)cc(NC)n3)ccc2OC)c1 [EHMT 2-IN-1]

Compound: CN1CCC(CNc2ccc3ncc(-c4cccc(OC(F)(F)F)c4)n3n2)CC1 [SGI-1776]
potency to Fit3 (Fit3): potent | fold selective versus Pim2 (Pim2): […] | potency to haspin (haspin): potent | fold selective versus Pim3 (Pim3): […]

Compound: Cn1nnc2c(C(N)=O)ncn2c1=O [Temozolomide]
injection-site reactions (people receiving the solution for infusion): injection-site reactions, such as pain, irritation, itching, warmth, swelling and redness, as well as bruising | side effects (people treated with temozolomide): nausea (feeling sick), vomiting, constipation, loss of appetite, alopecia (hair loss), headache, fatigue (tired-ness), convulsions (fits), rash, neutropenia or lymphopenia (low white-blood-cell counts), and thrombocytopenia (low blood platelet counts)

Compound: O=c1sn(-c2cccc3ccccc23)c(=O)n1Cc1ccccc1 [Tideglusib]
adverse reactions [1]: mild-moderate adverse reactions, which included transient increases in serum creatine kinase, ALT—or gGT—diarrhea, nausea, cough, fatigue, and headache | clinical efficacy in Alzheimer's disease (Alzheimer's disease): lack of efficacy
